Experimental data: US8959984B2, “Proteome-wide quantification of small molecule binding to cellular target proteins” (priority 2007, dated 2015)
pKi: −log10 of the molar value.

How the values were obtained:
Assay in all cases: binding to VI16742 beads (HeLa lysate, SILAC MS)
[1] = molecular target: T1, BUB1 (IPI00783305) (Homo sapiens, UniProt O43683)
T1 construct: endogenous in cells; host or cells: HeLa S3
Summary of the method: (§1)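 Affinity capture: immobilised pyrido[2,3-d]pyrimidine kinase inhibitor, broad selectivity. Specific retention on the resin counted as binding.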

[2] = molecular target: T2, DPH5 (IPI00375824) (Homo sapiens, UniProt Q9H2P9)
T2 construct: endogenous in cells; host or cells: HeLa S3
T2 sequence (Q9H2P9 1-285): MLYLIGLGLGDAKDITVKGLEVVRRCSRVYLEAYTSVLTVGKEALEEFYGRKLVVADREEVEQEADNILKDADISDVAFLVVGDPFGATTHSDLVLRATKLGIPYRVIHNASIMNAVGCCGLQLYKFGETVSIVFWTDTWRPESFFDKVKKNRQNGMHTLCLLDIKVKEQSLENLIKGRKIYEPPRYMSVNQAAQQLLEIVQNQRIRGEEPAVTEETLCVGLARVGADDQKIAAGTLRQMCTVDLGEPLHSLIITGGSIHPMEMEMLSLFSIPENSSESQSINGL
Summary of the method: as §1

[3] = molecular target: T3, IKKb (IKBKB, IPI00024709) (Homo sapiens, UniProt O14920)
T3 construct: endogenous in cells; host or cells: HeLa S3
T3 sequence (O14920 1-756): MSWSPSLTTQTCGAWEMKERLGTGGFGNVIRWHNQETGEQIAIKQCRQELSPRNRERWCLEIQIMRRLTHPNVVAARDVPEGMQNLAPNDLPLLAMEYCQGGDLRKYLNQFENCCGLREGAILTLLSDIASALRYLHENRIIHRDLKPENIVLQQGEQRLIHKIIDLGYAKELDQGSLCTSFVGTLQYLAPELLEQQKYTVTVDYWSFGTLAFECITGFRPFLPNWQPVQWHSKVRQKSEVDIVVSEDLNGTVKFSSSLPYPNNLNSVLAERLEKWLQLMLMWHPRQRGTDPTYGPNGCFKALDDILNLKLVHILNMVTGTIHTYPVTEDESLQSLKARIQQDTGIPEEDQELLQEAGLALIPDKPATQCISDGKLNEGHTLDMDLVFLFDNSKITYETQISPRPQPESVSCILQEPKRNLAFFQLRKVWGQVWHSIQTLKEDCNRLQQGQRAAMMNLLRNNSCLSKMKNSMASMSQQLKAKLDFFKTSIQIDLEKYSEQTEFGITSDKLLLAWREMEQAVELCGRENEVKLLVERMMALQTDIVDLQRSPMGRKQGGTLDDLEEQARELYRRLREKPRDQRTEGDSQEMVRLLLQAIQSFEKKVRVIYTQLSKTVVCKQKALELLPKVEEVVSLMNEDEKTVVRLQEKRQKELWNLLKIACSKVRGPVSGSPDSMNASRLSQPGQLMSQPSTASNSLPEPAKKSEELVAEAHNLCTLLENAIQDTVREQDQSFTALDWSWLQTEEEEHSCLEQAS
Summary of the method: as §1

[4] = molecular target: T4, XTP3TPA (IPI00012197) (Homo sapiens, UniProt Q9H773)
T4 construct: endogenous in cells; host or cells: HeLa S3
T4 sequence (Q9H773 1-170): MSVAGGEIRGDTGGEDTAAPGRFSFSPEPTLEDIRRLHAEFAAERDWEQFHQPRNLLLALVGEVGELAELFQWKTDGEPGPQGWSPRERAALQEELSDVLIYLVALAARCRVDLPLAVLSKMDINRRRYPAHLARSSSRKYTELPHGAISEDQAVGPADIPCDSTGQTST
Summary of the method: as §1

[5] = molecular target: T5, LOK (STK10, IPI00304742) (Homo sapiens, UniProt O94804)
T5 construct: endogenous in cells; host or cells: HeLa S3
T5 sequence (O94804 whole entry): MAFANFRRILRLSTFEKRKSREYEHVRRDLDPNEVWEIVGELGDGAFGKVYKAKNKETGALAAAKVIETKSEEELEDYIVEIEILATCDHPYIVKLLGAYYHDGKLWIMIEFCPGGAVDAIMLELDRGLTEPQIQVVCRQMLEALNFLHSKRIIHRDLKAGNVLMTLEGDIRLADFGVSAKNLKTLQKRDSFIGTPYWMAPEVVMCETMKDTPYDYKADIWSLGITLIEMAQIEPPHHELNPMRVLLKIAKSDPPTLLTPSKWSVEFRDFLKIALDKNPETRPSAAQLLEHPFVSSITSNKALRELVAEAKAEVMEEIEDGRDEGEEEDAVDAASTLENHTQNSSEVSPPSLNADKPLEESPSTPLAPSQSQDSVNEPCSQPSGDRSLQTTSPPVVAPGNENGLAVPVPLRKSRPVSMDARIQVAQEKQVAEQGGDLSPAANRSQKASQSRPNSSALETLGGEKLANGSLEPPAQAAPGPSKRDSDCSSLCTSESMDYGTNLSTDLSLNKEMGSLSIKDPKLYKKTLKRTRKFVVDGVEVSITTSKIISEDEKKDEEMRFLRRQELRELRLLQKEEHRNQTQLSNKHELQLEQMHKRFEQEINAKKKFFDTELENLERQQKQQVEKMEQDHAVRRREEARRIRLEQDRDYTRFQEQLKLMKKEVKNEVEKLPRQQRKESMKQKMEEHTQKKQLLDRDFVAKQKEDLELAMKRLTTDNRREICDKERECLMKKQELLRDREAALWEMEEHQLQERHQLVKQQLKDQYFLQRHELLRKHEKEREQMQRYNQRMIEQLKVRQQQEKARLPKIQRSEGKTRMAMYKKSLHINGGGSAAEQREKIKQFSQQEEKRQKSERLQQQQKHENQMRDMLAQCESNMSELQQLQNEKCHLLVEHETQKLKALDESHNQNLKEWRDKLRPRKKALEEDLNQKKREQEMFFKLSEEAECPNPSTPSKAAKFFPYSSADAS
Summary of the method: as §1

[6] = molecular target: T6, CHED (CDC2L5, IPI00456970) (Homo sapiens, UniProt Q14004)
T6 construct: endogenous in cells; host or cells: HeLa S3 cell lysate
T6 sequence (Q14004 whole entry): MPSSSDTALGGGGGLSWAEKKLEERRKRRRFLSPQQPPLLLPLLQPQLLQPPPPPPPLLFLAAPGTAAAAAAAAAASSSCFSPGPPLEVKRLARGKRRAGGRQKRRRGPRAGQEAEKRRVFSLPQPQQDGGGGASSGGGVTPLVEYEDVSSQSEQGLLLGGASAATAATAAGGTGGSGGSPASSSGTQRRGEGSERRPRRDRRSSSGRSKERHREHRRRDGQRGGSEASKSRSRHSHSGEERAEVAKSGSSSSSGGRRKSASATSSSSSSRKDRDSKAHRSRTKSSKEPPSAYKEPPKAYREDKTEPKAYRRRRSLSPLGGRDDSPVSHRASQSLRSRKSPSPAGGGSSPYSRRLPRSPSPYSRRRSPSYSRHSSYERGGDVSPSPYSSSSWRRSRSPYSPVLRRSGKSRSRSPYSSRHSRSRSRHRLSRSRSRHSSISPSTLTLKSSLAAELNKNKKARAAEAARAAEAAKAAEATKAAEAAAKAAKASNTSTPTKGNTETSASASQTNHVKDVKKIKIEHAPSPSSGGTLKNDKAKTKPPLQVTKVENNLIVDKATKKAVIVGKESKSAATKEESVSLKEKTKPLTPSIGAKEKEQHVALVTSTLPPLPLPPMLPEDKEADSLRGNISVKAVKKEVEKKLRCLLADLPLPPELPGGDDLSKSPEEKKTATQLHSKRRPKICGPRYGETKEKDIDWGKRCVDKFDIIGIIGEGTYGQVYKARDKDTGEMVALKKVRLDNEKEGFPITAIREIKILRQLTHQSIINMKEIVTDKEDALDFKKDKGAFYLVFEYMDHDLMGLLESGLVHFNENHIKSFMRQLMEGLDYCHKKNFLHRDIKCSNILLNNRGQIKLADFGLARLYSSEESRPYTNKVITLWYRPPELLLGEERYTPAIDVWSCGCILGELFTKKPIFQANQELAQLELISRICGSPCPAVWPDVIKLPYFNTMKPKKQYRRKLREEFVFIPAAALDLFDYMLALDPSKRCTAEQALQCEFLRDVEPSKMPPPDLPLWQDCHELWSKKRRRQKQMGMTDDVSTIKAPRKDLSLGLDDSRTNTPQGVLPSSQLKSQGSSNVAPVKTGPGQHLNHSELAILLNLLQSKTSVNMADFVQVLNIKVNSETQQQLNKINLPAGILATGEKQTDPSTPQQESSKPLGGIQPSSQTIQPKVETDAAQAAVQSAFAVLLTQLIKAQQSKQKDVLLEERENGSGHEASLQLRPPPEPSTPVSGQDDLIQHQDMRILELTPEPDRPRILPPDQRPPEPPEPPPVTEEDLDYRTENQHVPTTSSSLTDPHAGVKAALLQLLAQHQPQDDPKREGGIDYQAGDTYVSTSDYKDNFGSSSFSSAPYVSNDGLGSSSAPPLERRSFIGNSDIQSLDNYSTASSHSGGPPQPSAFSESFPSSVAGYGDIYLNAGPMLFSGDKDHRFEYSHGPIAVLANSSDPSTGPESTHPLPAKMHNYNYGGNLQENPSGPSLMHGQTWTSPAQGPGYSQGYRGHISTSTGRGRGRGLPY
Summary of the method: as §1

[7] = molecular target: T7, NDR1 (STK38, IPI00027251) (Homo sapiens, UniProt Q15208)
T7 construct: endogenous in cells; host or cells: HeLa S3 cell lysate
T7 sequence (Q15208 whole entry): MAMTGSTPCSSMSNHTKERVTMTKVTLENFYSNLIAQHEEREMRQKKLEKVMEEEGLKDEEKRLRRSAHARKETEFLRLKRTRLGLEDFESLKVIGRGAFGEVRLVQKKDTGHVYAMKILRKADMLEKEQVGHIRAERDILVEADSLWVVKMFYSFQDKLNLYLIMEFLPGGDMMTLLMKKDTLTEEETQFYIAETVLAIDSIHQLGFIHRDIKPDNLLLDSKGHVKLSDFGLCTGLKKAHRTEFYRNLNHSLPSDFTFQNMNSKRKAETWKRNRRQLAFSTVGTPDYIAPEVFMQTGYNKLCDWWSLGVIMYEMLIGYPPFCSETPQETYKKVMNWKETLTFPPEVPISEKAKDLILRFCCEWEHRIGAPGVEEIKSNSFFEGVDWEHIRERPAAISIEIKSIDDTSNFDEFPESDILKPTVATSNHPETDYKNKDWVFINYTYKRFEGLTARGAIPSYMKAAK
Summary of the method: as §1

[8] = molecular target: T8, MAP2K1 (IPI00219604) (Homo sapiens, UniProt Q02750)
T8 construct: endogenous in cells; host or cells: HeLa S3
T8 sequence (Q02750 whole entry): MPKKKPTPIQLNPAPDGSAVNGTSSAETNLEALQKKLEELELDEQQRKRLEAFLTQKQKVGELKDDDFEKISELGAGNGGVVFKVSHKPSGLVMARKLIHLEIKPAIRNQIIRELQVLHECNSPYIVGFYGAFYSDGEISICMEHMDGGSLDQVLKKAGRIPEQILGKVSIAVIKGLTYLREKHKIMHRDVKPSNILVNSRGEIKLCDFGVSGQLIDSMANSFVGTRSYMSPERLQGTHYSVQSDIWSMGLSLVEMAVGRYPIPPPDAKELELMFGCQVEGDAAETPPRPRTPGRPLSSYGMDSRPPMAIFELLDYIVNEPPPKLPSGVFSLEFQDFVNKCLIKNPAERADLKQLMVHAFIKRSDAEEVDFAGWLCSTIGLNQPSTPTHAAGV
Summary of the method: as §1

[9] = molecular target: T9, PDE4D (IPI00002449) (Homo sapiens, UniProt Q08499)
T9 construct: endogenous in cells; host or cells: HeLa S3 cell lysate
Summary of the method: as §1

[10] = control beads vs first incubation

T1 sequence (O43683 whole entry): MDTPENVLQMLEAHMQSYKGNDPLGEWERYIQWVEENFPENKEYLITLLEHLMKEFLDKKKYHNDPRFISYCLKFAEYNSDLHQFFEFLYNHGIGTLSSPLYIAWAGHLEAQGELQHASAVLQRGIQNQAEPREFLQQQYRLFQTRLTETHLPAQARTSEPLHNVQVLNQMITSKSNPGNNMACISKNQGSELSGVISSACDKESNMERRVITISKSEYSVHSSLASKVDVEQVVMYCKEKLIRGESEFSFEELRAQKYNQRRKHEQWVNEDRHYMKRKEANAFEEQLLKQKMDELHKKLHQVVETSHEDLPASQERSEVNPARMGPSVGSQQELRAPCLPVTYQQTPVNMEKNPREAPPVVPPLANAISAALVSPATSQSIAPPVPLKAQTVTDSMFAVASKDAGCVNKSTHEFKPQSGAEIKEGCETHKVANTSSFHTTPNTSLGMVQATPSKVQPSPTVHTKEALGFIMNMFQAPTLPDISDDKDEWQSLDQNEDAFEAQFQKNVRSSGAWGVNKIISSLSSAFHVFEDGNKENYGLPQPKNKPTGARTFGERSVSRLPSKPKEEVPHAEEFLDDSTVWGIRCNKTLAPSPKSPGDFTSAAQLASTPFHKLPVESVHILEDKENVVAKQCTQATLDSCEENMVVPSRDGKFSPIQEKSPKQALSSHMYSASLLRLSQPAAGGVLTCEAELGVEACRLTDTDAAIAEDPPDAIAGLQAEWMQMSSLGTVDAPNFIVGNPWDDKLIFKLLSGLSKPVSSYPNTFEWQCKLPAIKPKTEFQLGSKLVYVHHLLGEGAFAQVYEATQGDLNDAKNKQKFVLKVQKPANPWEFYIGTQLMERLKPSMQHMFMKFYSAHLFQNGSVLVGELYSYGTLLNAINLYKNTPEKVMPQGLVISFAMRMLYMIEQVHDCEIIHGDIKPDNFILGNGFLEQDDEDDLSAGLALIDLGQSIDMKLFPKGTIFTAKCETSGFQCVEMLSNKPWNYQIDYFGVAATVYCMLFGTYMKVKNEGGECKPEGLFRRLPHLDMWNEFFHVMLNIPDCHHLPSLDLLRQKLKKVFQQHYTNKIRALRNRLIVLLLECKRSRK

## CC(C)n1c(=O)ccc2cnc(Nc3ccc(OCCN)cc3)nc21 [V16742]
[1]; [10]
  rAVERAGE (CTRL/1 INC): 0.05
[1]; immobilized VI16742
  pKi: 3.79
[1]; second vs first incubation
  rAVERAGE (2 INC/1 INC): 0.76
[2]; 5 h vs 2.5 h incubation time
  r (5 h/2.5 h INC. TIME): 2.72
[2]; [10]
  rAVERAGE (CTRL/1 INC): 0.03
[2]; immobilized VI16742
  pKi: 3.68
[2]; second vs first incubation
  rAVERAGE (2 INC/1 INC): 0.80
[3]; [10]
  rAVERAGE (CTRL/1 INC): 0.06
[3]; immobilized VI16742
  pKi: 3.70
[3]; second vs first incubation
  rAVERAGE (2 INC/1 INC): 0.79
[4]; 3 mg vs 1 mg lysate
  r (3 MG/1 MG LYSATE): 3.39
[4]; 5 h vs 2.5 h incubation time
  r (5 h/2.5 h INC. TIME): 1.04
[4]; [10]
  rAVERAGE (CTRL/1 INC): 0.08
[4]; immobilized VI16742
  pKi: 3.80
[4]; second vs first incubation
  rAVERAGE (2 INC/1 INC): 0.75
[5]; [10]
  rAVERAGE (CTRL/1 INC): 0.07
[5]; immobilized VI16742
  pKi: 3.79
[5]; second vs first incubation
  rAVERAGE (2 INC/1 INC): 0.76
[6]; 3 mg vs 1 mg lysate
  r (3 MG/1 MG LYSATE): 5.31
[6]; 5 h vs 2.5 h incubation time
  r (5 h/2.5 h INC. TIME): 1.42
[6]; [10]
  rAVERAGE (CTRL/1 INC): 0.05
[6]; immobilized VI16742
  pKi: 4.07
[6]; second vs first incubation
  rAVERAGE (2 INC/1 INC): 0.62
[7]; [10]
  rAVERAGE (CTRL/1 INC): 0.01
[7]; immobilized VI16742
  pKi: 4.11
[7]; second vs first incubation
  rAVERAGE (2 INC/1 INC): 0.60
[8]; 5 h vs 2.5 h incubation time
  r (5 h/2.5 h INC. TIME): 1.68
[8]; [10]
  rAVERAGE (CTRL/1 INC): 0.07
[8]; immobilized VI16742
  pKi: 3.75
[8]; second vs first incubation
  rAVERAGE (2 INC/1 INC): 0.78
[9]; 3 mg vs 1 mg lysate
  r (3 MG/1 MG LYSATE): 2.48
[9]; 5 h vs 2.5 h incubation time
  r (5 h/2.5 h INC. TIME): 1.09
[9]; [10]
  rAVERAGE (CTRL/1 INC): 0.05
[9]; immobilized VI16742
  pKi: 3.99
[9]; second vs first incubation
  rAVERAGE (2 INC/1 INC): 0.66
